A short description of data set [1]: Fraction unbound in human plasma incubated for 4.5 hrs by LC/MS/MS analysis. Type of data set: ADME, cell-free.
Data set [2] can be described thus: Solubility of the compound in FaSSIF measured after 16 hrs by HPLC analysis. Type of data set: physicochemical.
For data set [3] the following is noted: human, microsomes, 0.5 h, 2 µM.
The nature of data set [4]: Apparent permeability from apical to basolateral side in dog MDCK cells at 20 uM at pH 7.4. Type of data set: ADME, cell-based, Canis lupus familiaris.
Data set [5] deals with T1, Nuclear receptor ROR-gamma (Homo sapiens) (UniProt P51449).
T1 sequence (whole entry): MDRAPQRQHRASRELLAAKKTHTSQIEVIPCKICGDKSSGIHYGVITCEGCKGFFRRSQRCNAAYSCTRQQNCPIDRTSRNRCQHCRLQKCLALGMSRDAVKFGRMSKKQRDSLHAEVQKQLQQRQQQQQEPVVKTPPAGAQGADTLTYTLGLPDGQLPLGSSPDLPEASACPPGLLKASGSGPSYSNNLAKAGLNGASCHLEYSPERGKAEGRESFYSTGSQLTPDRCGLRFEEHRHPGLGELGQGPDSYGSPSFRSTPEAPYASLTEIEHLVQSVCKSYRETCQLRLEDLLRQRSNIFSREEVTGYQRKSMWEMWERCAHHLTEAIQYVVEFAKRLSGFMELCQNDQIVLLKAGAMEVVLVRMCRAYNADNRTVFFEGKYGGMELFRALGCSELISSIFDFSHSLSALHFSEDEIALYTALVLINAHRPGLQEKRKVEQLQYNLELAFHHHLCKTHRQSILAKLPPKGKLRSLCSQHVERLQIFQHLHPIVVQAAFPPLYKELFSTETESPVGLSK
In words: Displacement of [3H]-25-hydroxycholesterol from His-Flag-tagged human RORgammat LBD (309 to 508 residues) expressed in Escherichia coli at 10 uM measured after 4 hrs by Microbeta counter based analysis relative to control. Background: In a radioligand displacement assay an active substance lowers the binding of a labelled ligand.

The next data set deals with PBMC. Conditions: Mus musculus, dose 30-100 mg/kg, time 20-24 hrs.
Data set [6] has as its system Mus musculus. The experiment in a line: Antiinflammatory activity against glucose-6-phosphate isomerase induced arthritis mouse model assessed as complete prophylaxis at 100 mg/kg administered once daily for 21 days from GPI immunization. Type of data set: functional, organism-based. The note with it: time 21.0 day.
Data set [7] has as its system Mus musculus. In words: Antiinflammatory activity against glucose-6-phosphate isomerase induced arthritis mouse model assessed as reduction in IL-17 mRNA expression in paws at 30 mg/kg administered once daily for 21 days from GPI immunization by Taqman PCR analysis relative to control. Format: functional. Also on record: scale not given: the % may be the effect or the level left. Conditions: time 21 day. On the technique in general: Quantitative PCR measures a nucleic acid by following its amplification.

Data set [8] deals with Mus musculus. In words: Antiinflammatory activity against glucose-6-phosphate isomerase induced arthritis mouse model assessed as reduction in IL-17 mRNA expression in paws at 3 mg/kg administered once daily for 21 days from GPI immunization by Taqman PCR analysis relative to control. Further details: scale not given: the % may be the effect or the level left. The note with it: time 21 day. Format: functional.

The subject of data set [9] is Mus musculus. The experiment in a line: Antiinflammatory activity against glucose-6-phosphate isomerase induced arthritis mouse model assessed as reduction in IL-17 mRNA expression in paws at 10 mg/kg administered once daily for 21 days from GPI immunization by Taqman PCR analysis relative to control. Format: functional. Also on record: scale not given: the % may be the effect or the level left. The note with it: time 21 day.

A further data set in a line: cells. Conditions: Mus musculus, PBMC.
The test system of data set [10] is Mus musculus. In words: Antiinflammatory activity against glucose-6-phosphate isomerase induced arthritis mouse model assessed as improvement in clinical score at 10 to 30 mg/kg administered once daily for 21 days from GPI immunization. Type of data set: functional, organism-based. The note with it: dose 10-30 mg/kg, time 21.0 day.

≈ marks a conversion by molar mass, not a printed value. Calls of active or inactive are those of the source. The calls are words filed in the database; no cut-off is given here.

Description for PBMC: Inhibition of IL-17A secretion in antiCD3/IL-23 stimulated mouse PBMC cells in mouse plasma at 30 to 100 mg/kg when plasma exposure above 1.8 uM for 20 to 24 hrs
Description for cells: Inhibition of IL-17A secretion in antiCD3/IL-23 stimulated mouse PBMC cells in mouse plasma preincubated for 2 hrs followed by antiCD3/IL23 stimulation and measured after 6 hrs by Taqman PCR analysis

As for `CCS(=O)(=O)c1ccc(CNC(=O)c2cc3c(s2)C2(CCN([C@H](C)c4cnc(C(F)(F)F)nc4)CC2)O[C@@H](C)C3)cc1`, the free fraction (fraction unbound) (in general, free concentration divided by total concentration) at 4.5 h in [1] was 0.041. In data set [2], the concentration in solution (solubility at 16 h) was 24 µg/mL (≈ 38.5 µM). This molecule also yielded a CL free in data set [3] of 36.2 mL/min/kg. The Papp A→B (usually the apparent permeability from the apical to the basolateral side of a cell layer) at 20 µM in data set [4] was determined as 7.57 ×10⁻⁶ cm/s.
Molecule `CS(=O)(=O)c1ccc(CNC(=O)c2cc3c(s2)C2(CCN(Cc4ccc(Cl)cc4Cl)CC2)OCC3)cc1` showed a CL free in data set [3] of 3450 mL/min/kg.
In data set [3], `CS(=O)(=O)c1ccc(CNC(=O)c2cc3c(s2)C2(CCN(Cc4ccc(C#N)cc4)CC2)OCC3)cc1` gave a CL free of 80.7 mL/min/kg.
Take `COc1ccccc1-n1cc(CN2CCC3(CC2)OCC(F)(F)c2cc(Cl)sc23)c(C)n1`: the Activity in data set [5] is 52%.
As to `CCS(=O)(=O)c1ccc(CNC(=O)c2cc3c(s2)C2(CCN([C@H](C)c4ccc(C#N)cc4)CC2)OCC3)nc1`, the fraction unbound at 4.5 h in data set [1] is 0.05. Moreover, the solubility (as a rule, the dissolved amount per volume that the medium holds) at 16 h in [2] was 185 µg/mL (≈ 328 µM). The same molecule showed a CL free in data set [3] of 92.2 mL/min/kg. The apparent permeability from apical to basolateral (Papp A→B) at 20 µM in data set [4] came to 8.5 ×10⁻⁶ cm/s.
For `CCS(=O)(=O)c1ccc(CNC(=O)c2cc3c(s2)C2(CCN([C@H](C)c4cnc(C(F)(F)F)nc4)CC2)OCC3)cc1`, in that order: 0.056, 16 µg/mL (≈ 26.3 µM), 69.5 mL/min/kg and 8.56 ×10⁻⁶ cm/s.
In data set [3], `C[C@H](c1ccc(C#N)cc1)N1CCC2(CC1)OCCc1cc(C(=O)NCc3ccc(S(C)(=O)=O)cc3)sc12` returned a CL free of 218 mL/min/kg.
Take `CCS(=O)(=O)c1ccc(CNC(=O)c2cc3c(s2)C2(CCN([C@H](C)c4ccc(C#N)cc4)CC2)OCC3)cc1`: the free fraction (fraction unbound) at 4.5 h in data set [1] was 0.02. Further, the solubility at 16 h in data set [2] was found to be 9 µg/mL (≈ 16 µM). Besides, in the data set with PBMC, the inhibition entry is “Active”. Besides, the result in the data set with Mus musculus [6] and in the data set on Mus musculus [10] was Active. The Activity in the data set with Mus musculus [7] is 88%; in the data set with Mus musculus [8] it was 82%; in the data set on Mus musculus [9], 90%. Moreover, the IC50 (in general, the concentration needed to halve the response being measured) in “cells” is 1800 nM. The molecule further gave a CL free in [3] of 406 mL/min/kg. Moreover, the Papp A→B at 20 µM in [4] worked out at 7.07 ×10⁻⁶ cm/s.
In [3], `CS(=O)(=O)c1ccc(CNC(=O)c2cc3c(s2)C2(CCN(Cc4ccc(Cl)cc4)CC2)OCC3)cc1` gave a CL free of 495 mL/min/kg.
In data set [1], `CCS(=O)(=O)c1ccc(CNC(=O)c2cc3c(s2)C2(CCN([C@H](C)c4cnc(C(F)(F)F)nc4)CC2)O[C@@H](C)C3)nc1` had an unbound share (fraction unbound) at 4.5 h of 0.12. Further, in data set [2], the concentration in solution (solubility at 16 h) was 220 µg/mL (≈ 353 µM). The same molecule gave a CL free in data set [3] of 32 mL/min/kg. Besides, the Papp A→B at 20 µM in data set [4] was 9.07 ×10⁻⁶ cm/s.
In [3], `CS(=O)(=O)c1ccc(CNC(=O)c2cc3c(s2)C2(CCN(Cc4ccc(C(F)(F)F)cc4)CC2)OCC3)cc1` showed a CL free of 448 mL/min/kg.

The record behind these values is ChEMBL document CHEMBL5053486, “Defining Target Engagement Required for Efficacy In Vivo at the Retinoic Acid Receptor-Related Orphan Receptor C2 (RORγt)” (J Med Chem, 2021).
